Experimental data taken from US20020028851A1, “Guanylhydrazones and their use to treat inflammatory conditions” (priority 1994, published 2002).

System: Lewis rats
Experiment: Focal cerebral infarction (middle cerebral artery severing)
Assay type: in vivo
Conditions: 1 mg/Kg i.v. one hour before artery severed; 24 hours; p<0.05 vs controls
Method: Lewis rats (male, 270-300 g) were given food and water ad libi tum before and after surgery. Animals were anesthetized with ketamine (120 mg/Kg i.m.), allowed to breathe spontaneously, and body temperature maintained at 35.5-36.5° C. with a heating blanket. The ventral neck and area between the right eye and ear was shaved. A midline ventral cervical incision was used to expose the left common carotid artery (CCA) which was dissected free from surrounding tissue with preservation of the vagus nerve. A loop of 4-0 silk was then placed around the artery for future manipulation. The right common carotid artery was then exposed and permanently occluded with double 4-0 silk ligatures. […]
Twenty-four hours after MCA severing, animals were anesthetized and decapitated and the brains were quickly removed without perfusion and coronally sectioned at 1 mm intervals with a brain slicer for analysis. […] Slices were then placed in buffered 10% formalin and infarct area determined by planimetry on projected images of photographed brain slices. Infarct size for an individual animal was calculated by summing the infarct area present on each brain slice and dividing by the sum of hemisphere area for all slices for that animal (expressed as a percentage of hemisphere area for each slice). Animals were studied in groups of 10, and the data expressed as average stroke volume for the group.

`CC(=NNC(=N)N)c1cc(NC(=O)CCCCCCCCC(=O)Nc2cc(C(C)=NNC(=N)N)cc(C(C)=NNC(=N)N)c2)cc(C(C)=NNC(=N)N)c1.Cl.Cl.Cl.Cl` [Compound 14, N,N′-bis(3,5-diacetyl-phenyl)decanediamide tetrakis(amidinohydrazone) tetrahydrochloride] was tested, and the “mean infarct (stroke) size, percentage of hemisphere area” value was 1.7%±0.2%.
